Reference: patent publication US9567319B2, “Compound having higher inhibitory activity on protein kinase G and preparation method thereof” (Jenkem Technology Co., Ltd., (Tianjin), priority 2014, dated 2017)
Where “and” joins values, the source holds several entries; their conditions need not be identical. Equal entries are not always repeated. Entries after “also recorded” stand apart in the source; their conditions may differ.

How the values were obtained:
[1] = tested on: hyperalgesia induced by Freund's complete adjuvant (CFA) in rats; test: Therapeutic effect on CFA induced hyperalgesia in rats (overall conclusion of Von Frey and weight bearing tests); assay type: in vivo, SD rats
Method: . A repeat efficacy study was carried out on the same batch of animals with a single-dose treatment followed by a washing-out period. The 14 days in life studies included two stages: a single low dose treatment assessment on the 7th day and then a single high dose treatment test on the 14th day after CFA injection.
On the 7th day after CFA injection, the rats were randomly assigned to respective groups using a computer generated randomization procedure based on the body weight and the baseline values of Von Frey and weight bearing test. Animals received corresponding single dose treatments (vehicle and 3 test articles) on the 7th and 14th days after CFA injection, respectively, and the effect of the test compounds were evaluated. Hyperalgesia of all the study animals was assessed following a single low dose treatment with the test articles on day 7, while a single high dose effect of the test article was evaluated on day 14.
The mechanical hyperalgesia and weight bearing were measured on day 7 and day 14 after CFA injection, followed by administration of control or test articles. Von Frey filaments and weight bearing were measured on all the study animals at three time points on day 7, and four time points on day 14. An extra time point assessment was conducted on day 14, considering the strong analgesic effect of the test articles at a higher dose noticed during the test at the 3th time point.
The effects of compounds 46, JK-02A and JK-02H on CFA induced hyperalgesia in rats were assessed with Von Frey and weight bearing tests following single injection.

[2] = tested on: hyperalgesia induced by Freund's complete adjuvant (CFA) in rats; test: Weight bearing test, CFA induced hyperalgesia in rats; assay type: in vivo, SD rats; details: for Weight Bearing Test Values (Mean ± SD), Baseline: pretreatment, n=8; for Weight Bearing Test Values (Mean ± SD), 15 min: 15 min post treatment; for Weight Bearing Test Values (Mean ± SD), 2 h: 2 h post treatment
Method: Compounds 46 and JK-02A were prepared according to the disclosure of US patent application No. US2008/0176920, and compound JK-02H was prepared according to Example 1. A repeat efficacy study was carried out on the same batch of animals with a single-dose treatment followed by a washing-out period. The 14 days in life studies included two stages: a single low dose treatment assessment on the 7th day and then a single high dose treatment test on the 14th day after CFA injection. On the 7th day after CFA injection, the rats were randomly assigned to respective groups using a computer generated randomization procedure based on the body weight and the baseline values of Von Frey and weight bearing test. Animals received corresponding single dose treatments (vehicle and 3 test articles) on the 7th and 14th days after CFA injection, respectively, and the effect of the test compounds were evaluated. Hyperalgesia of all the study animals was assessed following a single low dose treatment with the test articles on day 7, while a single high dose effect of the test article was evaluated on day 14. The mechanical hyperalgesia and weight bearing were measured on day 7 and day 14 after CFA injection, followed by administration of control or test articles. Von Frey filaments and weight bearing were measured on all the study animals at three time points on day 7, and four time points on day 14. An extra time point assessment was conducted on day 14, considering the strong analgesic effect of the test articles at a higher dose noticed during the test at the 3th time point. Rats distributed body weight unequally on the CFA-injected and contra lateral paws, which was measured by a weight balance changing instrument (Bio-medical, USA). The animals were tested in a box constructed to register the weight load exerted by the hind paws by means of force plates inserted in the floor. The mean weight bearing (unit in “g”) between the CFA-injected paw and the contra-lateral paw was determined in 10 seconds. The weight bearing test of all study animals was conducted at the same time intervals as the mechanical hyperalgesia test. All the results were expressed as mean±SD. One-way analysis of variance (ANOVA) followed by a multiple comparison test were applied among the groups, p<0.05 accepted as significant.

[3] = day 7 after CFA, single low dose i.v. (46 and JK-02A 10 mg/kg, JK-02H 5 mg/kg)
[4] = day 14 after CFA, single high dose i.v. (46 and JK-02A 40 mg/kg, JK-02H 20 mg/kg)
[5] = individual animal, high dose i.v. (46 and JK-02A 40 mg/kg, JK-02H 20 mg/kg), hydrochloride
[6] = individual animal, low dose i.v. (46 and JK-02A 10 mg/kg, JK-02H 5 mg/kg), hydrochloride

Cl.O=C(N[C@@H]1CNC[C@H]1NC(=O)c1ccc2cn[nH]c2c1)c1ccc(C(=O)c2c(OCCOCCO)ccc(F)c2F)cc1 [JK-02H, (3R,4R)-3-{4-[2,3-difluoro-6-(5-hydroxy-3-oxapentan-1-oxy)]benzoyl}benzamido-4-(1H-indazole-6-carboxamido)pyrrolidine hydrochloride]
therapeutic effect when the test time was prolonged to 5 h ([1]; high dose (20 mg/kg), 5 h post treatment): very remarkable therapeutic effect
anti-hyperalgesia effect at high dose ([1]; high dose i.v.: JK-02H 20 mg/kg, 46 and JK-02A 40 mg/kg, compared with vehicle, hydrochloride): excellent anti-hyperalgesia effect; also recorded: significant anti-hyperalgesia effects
anti-hyperalgesia effect at low dose ([1]; low dose i.v.: JK-02H 5 mg/kg, 46 and JK-02A 10 mg/kg, compared with vehicle, hydrochloride): excellent anti-hyperalgesia effect; also recorded: significant anti-hyperalgesia effects
Weight Bearing Test Values (Mean ± SD), Baseline ([2]; day 7 after CFA, low dose groups (46 and JK-02A 10 mg/kg, JK-02H 5 mg/kg)): 48.83 ± 9.15 g
Weight Bearing Test Values (Mean ± SD), 15 min [2, 3]: 25.30 ± 7.97 g
Weight Bearing Test Values (Mean ± SD), 2 h [2, 3]: 37.43 ± 9.77 g
Weight Bearing Test Values (Mean ± SD), Baseline ([2]; day 14 after CFA, high dose groups (46 and JK-02A 40 mg/kg, JK-02H 20 mg/kg)): 46.68 ± 4.82 g
Weight Bearing Test Values (Mean ± SD), 15 min [2, 4]: 28.55 ± 10.91 g
Weight Bearing Test Values (Mean ± SD), 2 h [2, 4]: 30.48 ± 7.88 g
Weight Bearing Test Values (Mean ± SD), 5 h ([2]; day 14 after CFA, single high dose i.v. (46 and JK-02A 40 mg/kg, JK-02H 20 mg/kg), 5 h post treatment): 37.58 ± 6.58 g
Weight Bearing Values of Individual Animal, Day 14, 15 min, Left [2, 5]: 59.4 g and 69.4 g and 72.7 g and 72.8 g and 23.1 g and 55.7 g and 42.0 g and 55.0 g
Weight Bearing Values of Individual Animal, Day 14, 15 min, Right [2, 5]: 82.5 g and 90.8 g and 92.9 g and 99.1 g and 77.6 g and 82.3 g and 70.4 g and 82.9 g
Weight Bearing Values of Individual Animal, Day 14, 15 min, Δ [2, 5]: 23.1 g and 21.4 g and 20.2 g and 26.3 g and 54.5 g and 26.6 g and 28.4 g and 27.9 g
Weight Bearing Values of Individual Animal, Day 14, 2 h, Left [2, 5]: 75.2 g and 69.4 g and 47.2 g and 71.7 g (2×) and 76.8 g and 55.9 g and 47.9 g
Weight Bearing Values of Individual Animal, Day 14, 2 h, Right [2, 5]: 95.7 g and 104.8 g and 90.0 g and 96.8 g and 99.9 g and 93.7 g and 80.6 g and 98.1 g
Weight Bearing Values of Individual Animal, Day 14, 2 h, Δ [2, 5]: 20.5 g and 35.4 g and 42.8 g and 25.1 g and 23.1 g and 37.8 g and 32.7 g and 26.4 g
Weight Bearing Values of Individual Animal, Day 14, 5 h, Left [2, 5]: 63.5 g and 62.4 g and 66.3 g and 54.9 g and 63.8 g and 57.7 g and 47.6 g and 44.0 g
Weight Bearing Values of Individual Animal, Day 14, 5 h, Right [2, 5]: 94.2 g and 111.2 g and 105.6 g and 95.6 g and 95.1 g and 88.7 g and 83.3 g and 87.1 g
Weight Bearing Values of Individual Animal, Day 14, 5 h, Δ [2, 5]: 30.7 g and 48.8 g and 39.3 g and 40.7 g and 31.3 g and 31.0 g and 35.7 g and 43.1 g
Weight Bearing Values of Individual Animal, Day 7, 15 min, Left [2, 6]: 54.2 g and 73.4 g and 30.9 g and 63.3 g and 46.3 g and 67.8 g and 45.1 g and 60.6 g
Weight Bearing Values of Individual Animal, Day 7, 15 min, Right [2, 6]: 77.2 g and 99.2 g and 71.7 g and 77.8 g and 72.4 g and 85.5 g and 75.2 g and 85.0 g
Weight Bearing Values of Individual Animal, Day 7, 15 min, Δ [2, 6]: 23.0 g and 25.8 g and 40.8 g and 14.5 g and 26.1 g and 17.7 g and 30.1 g and 24.4 g
Weight Bearing Values of Individual Animal, Day 7, 2 h, Left [2, 6]: 42.3 g and 29.7 g and 57.5 g and 72.9 g and 23.1 g and 37.3 g and 43.5 g and 51.9 g
Weight Bearing Values of Individual Animal, Day 7, 2 h, Right [2, 6]: 66.8 g and 74.0 g and 106.2 g and 97.7 g and 71.6 g and 77.0 g and 81.2 g and 83.1 g
Weight Bearing Values of Individual Animal, Day 7, 2 h, Δ [2, 6]: 24.5 g and 44.3 g and 48.7 g and 24.8 g and 48.5 g and 39.7 g and 37.7 g and 31.2 g
First Baseline, Balance Left, individual animal ([2]; individual animal, pretreatment day 7, left (CFA-injected) hind paw, hydrochloride): 62.6 g and 45.6 g and 51.0 g and 60.6 g and 48.8 g and 56.5 g and 38.6 g and 64.0 g
First Baseline, Balance Right, individual animal ([2]; individual animal, pretreatment day 7, right hind paw, hydrochloride): 96.2 g (2×) and 101.1 g and 115.5 g and 89.7 g and 121.0 g and 87.7 g and 110.9 g
First Baseline, Balance Δ, individual animal ([2]; individual animal, pretreatment day 7, right minus left, hydrochloride): 33.6 g and 50.6 g and 50.1 g and 54.9 g and 40.9 g and 64.5 g and 49.1 g and 46.9 g
Second Baseline, Balance Left, individual animal ([2]; individual animal, pretreatment day 14, left (CFA-injected) hind paw, hydrochloride): 43.2 g and 65.0 g and 68.9 g and 61.3 g and 47.2 g and 60.6 g and 50.2 g and 51.8 g
Second Baseline, Balance Right, individual animal ([2]; individual animal, pretreatment day 14, right hind paw, hydrochloride): 86.1 g and 110.8 g and 113.2 g and 115.1 g and 93.6 g and 102.8 g and 93.7 g and 106.3 g
Second Baseline, Balance Δ, individual animal ([2]; individual animal, pretreatment day 14, right minus left, hydrochloride): 42.9 g and 45.8 g and 44.3 g and 53.8 g and 46.4 g and 42.2 g and 43.5 g and 54.5 g
